For assay [1], the system named is Human alphaherpesvirus 2. As to the kind of experiment: Antiviral activity against Herpes simplex virus 2 G infected in human embryonic lung cells assessed as inhibition of viral replication. Type of assay: functional, organism-based. To be noted: Human alphaherpesvirus 2, strain G.
Assay [2] has as its system Human immunodeficiency virus 1. Briefly: Antiviral activity against HIV1 subtype B ROJO infected in human PBMC assessed as inhibition of viral replication by ELISA. In kind it is functional, organism-based. To be noted: Human immunodeficiency virus 1, subtype B ROJO. On the technique in general: ELISA stands for enzyme-linked immunosorbent assay.
The subject of assay [3] is Rattus norvegicus. Briefly: Immunosuppressive activity in Sprague-Dawley rat […] model assessed as percent T-helper cells at 25 mg/kg, po administered once daily for 28 days by flow cytometry. Type of assay: functional. On the technique in general: Flow cytometry measures light scatter and fluorescence of single cells or particles in a stream.
Assay [4] concerns Human immunodeficiency virus 1. As to the kind of experiment: Antiviral activity against APV, ATV, LPV, IDV, NFV, RTV, SQV-resistant HIV-1 1064-52 infected in human PBMC assessed as inhibition of viral replication by ELISA. Type of assay: functional, organism-based. The note with it: Human immunodeficiency virus 1, 1064-52.
For assay [5], the system named is Human respiratory syncytial virus. Briefly: Antiviral activity against RSV infected in human HeLa cells assessed as inhibition of viral replication.
Assay [6] has as its system Human immunodeficiency virus 1. Briefly: Antiviral activity against HIV1 subtype A 92UG037 infected in human PBMC assessed as inhibition of viral replication by ELISA. In kind it is functional, organism-based. To be noted: Human immunodeficiency virus 1, subtype A 92UG037.
For assay [7], the system named is Human alphaherpesvirus 1. As to the kind of experiment: Antiviral activity against Herpes simplex virus 1 KOS infected in human embryonic lung cells assessed as inhibition of viral replication. Type of assay: functional, organism-based. The note with it: Human alphaherpesvirus 1, KOS.
Assay [8] concerns Coxsackievirus. Briefly: Antiviral activity against Coxsackie B3 infected in african green monkey Vero cells assessed as inhibition of viral replication. Type of assay: functional, organism-based.
Assay [9] relates to Human immunodeficiency virus 1. As to the kind of experiment: Antiviral activity against HIV1 subtype C 92BR025 infected in human PBMC assessed as inhibition of viral replication by ELISA. The note with it: Human immunodeficiency virus 1, subtype C 92BR025. In kind it is functional, organism-based.

In ChEMBL document CHEMBL1687706, “Inhibition of human immunodeficiency virus type 1 replication in human cells by Debio-025, a novel cyclophilin binding agent” (Antimicrob Agents Chemother, 2008) one finds IC50 and Activity data, which are given here for one compound.

Usually IC50 stands for the concentration that gives 50% inhibition.

Turning to `C/C=C/C[C@@H](C)[C@@H](O)[C@H]1C(=O)N[C@@H](CC)C(=O)N(C)[C@H](C)C(=O)N(CC)[C@@H](C(C)C)C(=O)N[C@@H](C(C)C)C(=O)N(C)[C@@H](CC(C)C)C(=O)N[C@@H](C)C(=O)N[C@H](C)C(=O)N(C)[C@@H](CC(C)C)C(=O)N(C)[C@@H](CC(C)C)C(=O)N(C)[C@@H](C(C)C)C(=O)N1C` [ALISPORIVIR], the IC50 in assay [1] is more than 25000 nM; in assay [2], 24 nM; in [4] it was 7 nM; in assay [5], more than 8200 nM; in assay [6], 16 nM; in assay [7] it was more than 25000 nM. For the same compound, the 50% inhibitory concentration (IC50) is more than 25000 nM in assay [8] and 15 nM in assay [9]. Also, in assay [3], the Activity is listed as 34.5%.
